Measurements taken from article PMC5303205, “Comparative studies on the multi-component pharmacokinetics of Aristolochiae Fructus and honey-fried Aristolochiae Fructus extracts after oral administration in rats” (BMC Complementary and Alternative Medicine, 2017).
Read-outs that look alike come from different tables or passages of the source.

Columns and labels:
[1] = Multi-component pharmacokinetics of AAs in rats after oral administration of AF and HAF extracts (HPLC-MS/MS of plasma); design: species or system Sprague–Dawley (SD) rats; settings: Sprague-Dawley, rat, in vivo
Protocol: An aliquot (100 μl) of rat plasma was spiked with 10.0 μL IS, and vortexed with 300 μL acetic ether for 10 s before the supernatant was transferred into centrifuge tube. The extraction was repeated with 200 μL acetic ether. The combined organic layer was evaporated to dryness under a gentle stream of nitrogen at RT. The residue was resolved in 100 μL methanol and centrifuged at 15,800 × g for 10 min. The supernatant was used for HPLC-MS/MS analysis.
Chromatographic separation was performed by an Acquity C18 column (4.6 × 100 mm,3.5 μm) (Agilent Technologies, USA). The mobile phase was composed of water (containing 10 mM ammonium formate and formic acid, pH 3.0) (solvent A) and ACN (solvent B). The gradient profile of B was: 0–10 min, 35–38%; 10–11 min, 38– 60%; 11–17 min, 60–35%B; 17–18 min, 35%. The flow rate was kept at 0.5 mL/min. The column oven was set at 30 °C and the injection volume was 10 μL.
The mass spectrometer was operated in the positive ion electrospray mode with multiple reaction monitoring (MRM). The optimal MS parameters were set at the following parameters: a desolvation gas temperature of 450 °C, desolvation gas flow of 10 L/min, a nebulizer gas of 40 psi and a capillary voltage of 4000 V. The mass spectrometry conditions of AA I, AA II, AA C, AA D, 7-OH AA I and IS are summarized in Additional file 1: Table S1.
The rats were randomly divided into 6 groups (low, middle and high doses of AF and HAF; n = 6). After a week of acclimation, the animals were fasted for 12 h with free access to water. Then, AF and HAF extracts were administered to the rats. The extracts were suspended in 0.5% CMC–Na solution, and the oral doses (according to AA I in the extracts) were 3.0 mg/kg, 8.0 mg/kg and 15.0 mg/kg, respectively.
Blood samples were collected from the ocular vein using dried heparinized tubes at 0, 0.083, 0.17, 0.33, 0.50, 0.67, 0.83, 1, 2, 4, 6, 8, 10, 12 and 24 h from the start. The animals received fluid replacement (sterile isotonic saline) after every two samplings since the fifth collecting. The samples were then immediately centrifuged at 3100 × g for 10 min. The plasma obtained was frozen and stored at –20 °C until analysis.
All statistical analyses were performed using the SPSS 11.0 software (Chicago, USA). P values <0.05 were considered statistically significant. Pharmacokinetic analysis was performed using the proprietary DAS 3.0 software (Mathematical Pharmacology Professional Committee of China, Shanghai, China).
After the oral administration of AF and HAF extracts, rat plasma samples were prepared and analyzed as described above. Five main AAs can be detected in rat blood with the proposed HPLC-MS/MS method. The mean pharmacokinetic parameters of five AAs in AF and HAF are summarized in Tables 4, 5 and Additional files 5, 6, 7: Tables S4-S6. The maximum concentration (C max) was the experimentally-observed value. The other pharmacokinetic parameters of the five analytes were fitted by DAS 3.0 software.

[2] = Stability of AAs in rat plasma (QC samples, HPLC-MS/MS); assay type: in vitro ADME; settings: n = 5; for Short-term stability (RSD/%): fresh rat plasma at room temperature for 24 h before sample preparation; for Post-preparation stability (RSD/%): prepared rat plasma samples at room temperature for 24 h; for Long-term stability (RSD/%): rat plasma stored at –20 °C for 14 days; for Freeze-thaw stability (RSD/%): rat plasma, three freeze-thaw cycles (–20 °C 24 h, thawed at room temperature)
Protocol: The QC samples were assayed under several different conditions to evaluate the stability of AAs in rat plasma. The freeze-thaw stability of the analyte was determined over three freeze-thaw cycles. In each freeze-thaw cycle, the samples were frozen and stored at –20 °C for 24 h, then thawed at room temperature. To evaluate the long-term stability of AAs, the plasma samples were stored at –20 °C for 14 days. For the short-term stability, fresh plasma samples were kept at room temperature for 24 h before the sample preparation. After keeping the samples at room temperature for 24 h, post-preparation stability was tested. Stability was evaluated by comparing the mean concentration of the stored samples with the mean concentration of those prepared freshly. The stability data were acceptable when the bias was within ±15% of the actual value.

[3] = 3 mg/kg, AF extract, low dose (3.0 mg/kg as AA I), analyte dose mg/kg: AA I 3.0, AA II 0.21, AA C 1.42, AA D 1.60, 7-OH AA I 2.33, n = 6
[4] = 3 mg/kg, HAF extract, low dose (3.0 mg/kg as AA I), analyte dose mg/kg: AA I 3.0, AA II 0.26, AA C 1.53, AA D 1.51, 7-OH AA I 2.48, n = 6
[5] = 8 mg/kg, AF extract, mid dose (8.0 mg/kg as AA I), analyte dose mg/kg: AA I 8.0, AA II 0.56, AA C 3.78, AA D 4.26, 7-OH AA I 6.22, n = 6
[6] = 8 mg/kg, HAF extract, mid dose (8.0 mg/kg as AA I), analyte dose mg/kg: AA I 8.0, AA II 0.69, AA C 4.09, AA D 4.03, 7-OH AA I 6.62, n = 6
[7] = 15 mg/kg, AF extract, high dose (15.0 mg/kg as AA I), analyte dose mg/kg: AA I 15.0, AA II 1.05, AA C 7.09, AA D 8.00, 7-OH AA I 11.66, n = 6
[8] = 15 mg/kg, HAF extract, high dose (15.0 mg/kg as AA I), analyte dose mg/kg: AA I 15.0, AA II 1.29, AA C 7.66, AA D 7.56, 7-OH AA I 12.41, n = 6
[9] = high QC conc ng/mL: AA I 1830, AA II 3200, AA C 2980, AA D 3680, 7-OH AA I 3280
[10] = low QC conc ng/mL: AA I 1.83, AA II 8.00, AA C 186.3, AA D 36.8, 7-OH AA I 82.0
[11] = middle QC conc ng/mL: AA I 457.5, AA II 400, AA C 372.5, AA D 460, 7-OH AA I 410

COc1c(O)ccc2c1cc([N+](=O)[O-])c1c(C(=O)O)cc3c(c12)OCO3 [7-OH AA I]
AUC(0-inf) [1, 3]: 602 ng·h/mL
Cmax [1, 3]: 214 ng/mL
Tmax [1, 3]: 0.64 h
CL/F ([1]; 3 mg/kg, AF extract, low dose (3.0 mg/kg as AA I), analyte dose mg/kg: AA I 3.0, AA II 0.21, AA C 1.42, AA D 1.60, 7-OH AA I 2.33, n = 6, read-out: CLz/F (converted)): 71.5 mL/min/kg
Vd/F ([1]; 3 mg/kg, AF extract, low dose (3.0 mg/kg as AA I), analyte dose mg/kg: AA I 3.0, AA II 0.21, AA C 1.42, AA D 1.60, 7-OH AA I 2.33, n = 6, read-out: Vz/F): 24.7 L/kg
half-life ([1]; 3 mg/kg, AF extract, low dose (3.0 mg/kg as AA I), analyte dose mg/kg: AA I 3.0, AA II 0.21, AA C 1.42, AA D 1.60, 7-OH AA I 2.33, n = 6, read-out: t 1/2z (converted)): 3.84 h
AUC(0-inf) [1, 4]: 620 ng·h/mL
Cmax [1, 4]: 216 ng/mL
Tmax [1, 4]: 0.5 h
CL/F ([1]; 3 mg/kg, HAF extract, low dose (3.0 mg/kg as AA I), analyte dose mg/kg: AA I 3.0, AA II 0.26, AA C 1.53, AA D 1.51, 7-OH AA I 2.48, n = 6, read-out: CLz/F (converted)): 81.3 mL/min/kg
Vd/F ([1]; 3 mg/kg, HAF extract, low dose (3.0 mg/kg as AA I), analyte dose mg/kg: AA I 3.0, AA II 0.26, AA C 1.53, AA D 1.51, 7-OH AA I 2.48, n = 6, read-out: Vz/F): 17.5 L/kg
half-life ([1]; 3 mg/kg, HAF extract, low dose (3.0 mg/kg as AA I), analyte dose mg/kg: AA I 3.0, AA II 0.26, AA C 1.53, AA D 1.51, 7-OH AA I 2.48, n = 6, read-out: t 1/2z (converted)): 2.75 h
AUC(0-inf) [1, 5]: 1160 ng·h/mL
Cmax [1, 5]: 404 ng/mL
Tmax [1, 5]: 0.72 h
CL/F ([1]; 8 mg/kg, AF extract, mid dose (8.0 mg/kg as AA I), analyte dose mg/kg: AA I 8.0, AA II 0.56, AA C 3.78, AA D 4.26, 7-OH AA I 6.22, n = 6, read-out: CLz/F (converted)): 92.5 mL/min/kg
Vd/F ([1]; 8 mg/kg, AF extract, mid dose (8.0 mg/kg as AA I), analyte dose mg/kg: AA I 8.0, AA II 0.56, AA C 3.78, AA D 4.26, 7-OH AA I 6.22, n = 6, read-out: Vz/F): 26.1 L/kg
half-life ([1]; 8 mg/kg, AF extract, mid dose (8.0 mg/kg as AA I), analyte dose mg/kg: AA I 8.0, AA II 0.56, AA C 3.78, AA D 4.26, 7-OH AA I 6.22, n = 6, read-out: t 1/2z (converted)): 3.25 h
AUC(0-inf) [1, 6]: 991 ng·h/mL
Cmax [1, 6]: 366 ng/mL
Tmax [1, 6]: 0.67 h
CL/F ([1]; 8 mg/kg, HAF extract, mid dose (8.0 mg/kg as AA I), analyte dose mg/kg: AA I 8.0, AA II 0.69, AA C 4.09, AA D 4.03, 7-OH AA I 6.62, n = 6, read-out: CLz/F (converted)): 109 mL/min/kg
Vd/F ([1]; 8 mg/kg, HAF extract, mid dose (8.0 mg/kg as AA I), analyte dose mg/kg: AA I 8.0, AA II 0.69, AA C 4.09, AA D 4.03, 7-OH AA I 6.62, n = 6, read-out: Vz/F): 25.4 L/kg
half-life ([1]; 8 mg/kg, HAF extract, mid dose (8.0 mg/kg as AA I), analyte dose mg/kg: AA I 8.0, AA II 0.69, AA C 4.09, AA D 4.03, 7-OH AA I 6.62, n = 6, read-out: t 1/2z (converted)): 2.55 h
AUC(0-inf) [1, 7]: 1320 ng·h/mL
Cmax [1, 7]: 566 ng/mL
Tmax [1, 7]: 0.5 h
CL/F ([1]; 15 mg/kg, AF extract, high dose (15.0 mg/kg as AA I), analyte dose mg/kg: AA I 15.0, AA II 1.05, AA C 7.09, AA D 8.00, 7-OH AA I 11.66, n = 6, read-out: CLz/F (converted)): 174 mL/min/kg
Vd/F ([1]; 15 mg/kg, AF extract, high dose (15.0 mg/kg as AA I), analyte dose mg/kg: AA I 15.0, AA II 1.05, AA C 7.09, AA D 8.00, 7-OH AA I 11.66, n = 6, read-out: Vz/F): 52.3 L/kg
half-life ([1]; 15 mg/kg, AF extract, high dose (15.0 mg/kg as AA I), analyte dose mg/kg: AA I 15.0, AA II 1.05, AA C 7.09, AA D 8.00, 7-OH AA I 11.66, n = 6, read-out: t 1/2z (converted)): 3.45 h
AUC(0-inf) [1, 8]: 1130 ng·h/mL
Cmax [1, 8]: 531 ng/mL
Tmax [1, 8]: 0.53 h
CL/F ([1]; 15 mg/kg, HAF extract, high dose (15.0 mg/kg as AA I), analyte dose mg/kg: AA I 15.0, AA II 1.29, AA C 7.66, AA D 7.56, 7-OH AA I 12.41, n = 6, read-out: CLz/F (converted)): 207 mL/min/kg
Vd/F ([1]; 15 mg/kg, HAF extract, high dose (15.0 mg/kg as AA I), analyte dose mg/kg: AA I 15.0, AA II 1.29, AA C 7.66, AA D 7.56, 7-OH AA I 12.41, n = 6, read-out: Vz/F): 47.4 L/kg
half-life ([1]; 15 mg/kg, HAF extract, high dose (15.0 mg/kg as AA I), analyte dose mg/kg: AA I 15.0, AA II 1.29, AA C 7.66, AA D 7.56, 7-OH AA I 12.41, n = 6, read-out: t 1/2z (converted)): 2.94 h
Short-term stability (RSD/%) [2, 9]: 9.1%
Short-term stability (RSD/%) [2, 10]: 7.1%
Short-term stability (RSD/%) [2, 11]: 11.8%
Post-preparation stability (RSD/%) [2, 9]: 6.7%
Post-preparation stability (RSD/%) [2, 10]: 5.1%
Post-preparation stability (RSD/%) [2, 11]: 4.2%
Long-term stability (RSD/%) [2, 9]: 11.1%
Long-term stability (RSD/%) [2, 10]: 2.0%
Long-term stability (RSD/%) [2, 11]: 6.4%
Freeze-thaw stability (RSD/%) [2, 9]: 13.4%
Freeze-thaw stability (RSD/%) [2, 10]: 6.2%
Freeze-thaw stability (RSD/%) [2, 11]: 12.3%
